Converted amounts (≈) assume the structure as drawn.
test: Cytotoxicity against human DU145 cells assessed as growth inhibition after 48 hrs by sulforhodamine B assay; type: functional; settings: DU-145, 48 h

`C[C@@H](C/C=C/C(C)(C)O)[C@H]1CC[C@@]2(C)C3=C(C(=O)C[C@@]12C)[C@@]1(C)CC[C@H](O)C(C)(C)[C@@H]1CC3` and `C[C@H](C/C=C/C(C)(C)O)[C@@H]1CC[C@]2(C)C3=C(CC[C@@]12C)[C@@]1(C)CC[C@H](O)C(C)(C)[C@@H]1CC3` cannot be ordered by GI50: > 1 µg/mL for the first, 1.9 µg/mL (≈ 4.29 µM) for the second.

`C=C(C)[C@@H](O)CC[C@H](C)[C@@H]1CC=C2[C@]3(C)CC[C@H]4C(C)(C)[C@@H](O)CC[C@]4(C)[C@H]3CC[C@]21C` and `C=C(C)[C@H](O)CC[C@H](C)[C@@H]1CC=C2[C@]3(C)CC[C@H]4C(C)(C)[C@@H](O)CC[C@]4(C)[C@H]3CC[C@]21C` are within 1.5-fold of each other in GI50: 0.65 µg/mL (≈ 1.47 µM) for the first, 0.58 µg/mL (≈ 1.31 µM) for the second.

`C=C(C)C(O)CC[C@@H](C)[C@@H]1CC[C@]2(C)C3=C(CC[C@@]12C)[C@@]1(C)CC[C@H](O)C(C)(C)[C@@H]1CC3` (some centres not stated) and `C[C@H](C/C=C/C(C)(C)O)[C@H]1CC[C@@]2(C)C3=C(CC[C@]12C)[C@@]1(C)CC[C@H](O)C(C)(C)[C@@H]1CC3` are within 1.5-fold of each other in GI50: 1.5 µg/mL (≈ 3.39 µM) for the first, 1.9 µg/mL (≈ 4.29 µM) for the second.

test: Cytotoxicity against human MCF7 cells assessed as growth inhibition after 48 hrs by sulforhodamine B assay; type: functional; settings: MCF7, 48 h

`C[C@@H](C/C=C/C(C)(C)O)[C@H]1CC[C@@]2(C)C3=C(C(=O)C[C@@]12C)[C@@]1(C)CC[C@H](O)C(C)(C)[C@@H]1CC3` and `C[C@H](C/C=C/C(C)(C)O)[C@@H]1CC[C@]2(C)C3=C(CC[C@@]12C)[C@@]1(C)CC[C@H](O)C(C)(C)[C@@H]1CC3` cannot be ordered by GI50: > 1 µg/mL for the first, 2.1 µg/mL (≈ 4.74 µM) for the second.

`C=C(C)[C@@H](O)CC[C@H](C)[C@@H]1CC=C2[C@]3(C)CC[C@H]4C(C)(C)[C@@H](O)CC[C@]4(C)[C@H]3CC[C@]21C` and `C=C(C)[C@H](O)CC[C@H](C)[C@@H]1CC=C2[C@]3(C)CC[C@H]4C(C)(C)[C@@H](O)CC[C@]4(C)[C@H]3CC[C@]21C` are within 1.5-fold of each other in GI50: 0.79 µg/mL (≈ 1.78 µM) for the first, 0.68 µg/mL (≈ 1.54 µM) for the second.

`C=C(C)C(O)CC[C@@H](C)[C@@H]1CC[C@]2(C)C3=C(CC[C@@]12C)[C@@]1(C)CC[C@H](O)C(C)(C)[C@@H]1CC3` (some centres not stated) and `C[C@H](C/C=C/C(C)(C)O)[C@H]1CC[C@@]2(C)C3=C(CC[C@]12C)[C@@]1(C)CC[C@H](O)C(C)(C)[C@@H]1CC3` are within 1.5-fold of each other in GI50: 2.5 µg/mL (≈ 5.65 µM) for the first, 2 µg/mL (≈ 4.52 µM) for the second.

test: Cytotoxicity against human KM20L2 cells assessed as growth inhibition after 48 hrs by sulforhodamine B assay; type: functional; settings: KM-20L2, 48 h

`C[C@@H](C/C=C/C(C)(C)O)[C@H]1CC[C@@]2(C)C3=C(C(=O)C[C@@]12C)[C@@]1(C)CC[C@H](O)C(C)(C)[C@@H]1CC3` and `C[C@H](C/C=C/C(C)(C)O)[C@@H]1CC[C@]2(C)C3=C(CC[C@@]12C)[C@@]1(C)CC[C@H](O)C(C)(C)[C@@H]1CC3` cannot be ordered by GI50: > 1 µg/mL for the first, 2 µg/mL (≈ 4.52 µM) for the second.

Compared with `C=C(C)[C@@H](O)CC[C@H](C)[C@@H]1CC=C2[C@]3(C)CC[C@H]4C(C)(C)[C@@H](O)CC[C@]4(C)[C@H]3CC[C@]21C`, `C=C(C)[C@H](O)CC[C@H](C)[C@@H]1CC=C2[C@]3(C)CC[C@H]4C(C)(C)[C@@H](O)CC[C@]4(C)[C@H]3CC[C@]21C` is higher in GI50: 0.71 µg/mL (≈ 1.6 µM) for the first, > 1 µg/mL for the second.

First: C=C(C)C(O)CC[C@@H](C)[C@@H]1CC[C@]2(C)C3=C(CC[C@@]12C)[C@@]1(C)CC[C@H](O)C(C)(C)[C@@H]1CC3 (some centres not stated)
Second: C[C@H](C/C=C/C(C)(C)O)[C@H]1CC[C@@]2(C)C3=C(CC[C@]12C)[C@@]1(C)CC[C@H](O)C(C)(C)[C@@H]1CC3
The GI50 of the first is 3.9-fold higher: 7 µg/mL (≈ 15.8 µM) for the first, 1.8 µg/mL (≈ 4.07 µM) for the second.

test: Cytotoxicity against mouse P388 cells assessed as growth inhibition after 48 hrs by coulter particle counting method; type: functional; settings: P388, 48 h, read-out: ED50 (the source's name)

`C[C@@H](C/C=C/C(C)(C)O)[C@H]1CC[C@@]2(C)C3=C(C(=O)C[C@@]12C)[C@@]1(C)CC[C@H](O)C(C)(C)[C@@H]1CC3` and `C[C@H](C/C=C/C(C)(C)O)[C@@H]1CC[C@]2(C)C3=C(CC[C@@]12C)[C@@]1(C)CC[C@H](O)C(C)(C)[C@@H]1CC3` cannot be ordered by EC50: > 10 µg/mL for the first, > 10 µg/mL for the second.

`C=C(C)[C@@H](O)CC[C@H](C)[C@@H]1CC=C2[C@]3(C)CC[C@H]4C(C)(C)[C@@H](O)CC[C@]4(C)[C@H]3CC[C@]21C` and `C=C(C)[C@H](O)CC[C@H](C)[C@@H]1CC=C2[C@]3(C)CC[C@H]4C(C)(C)[C@@H](O)CC[C@]4(C)[C@H]3CC[C@]21C` cannot be ordered by EC50: > 10 µg/mL for the first, > 10 µg/mL for the second.

`C=C(C)C(O)CC[C@@H](C)[C@@H]1CC[C@]2(C)C3=C(CC[C@@]12C)[C@@]1(C)CC[C@H](O)C(C)(C)[C@@H]1CC3` (some centres not stated) and `C[C@H](C/C=C/C(C)(C)O)[C@H]1CC[C@@]2(C)C3=C(CC[C@]12C)[C@@]1(C)CC[C@H](O)C(C)(C)[C@@H]1CC3` cannot be ordered by EC50: > 10 µg/mL for the first, > 10 µg/mL for the second.

test: Cytotoxicity against human BxPC3 cells assessed as growth inhibition after 48 hrs by sulforhodamine B assay; type: functional; settings: BXPC-3, 48 h

`C[C@@H](C/C=C/C(C)(C)O)[C@H]1CC[C@@]2(C)C3=C(C(=O)C[C@@]12C)[C@@]1(C)CC[C@H](O)C(C)(C)[C@@H]1CC3` and `C[C@H](C/C=C/C(C)(C)O)[C@@H]1CC[C@]2(C)C3=C(CC[C@@]12C)[C@@]1(C)CC[C@H](O)C(C)(C)[C@@H]1CC3` cannot be ordered by GI50: > 1 µg/mL for the first, 1.8 µg/mL (≈ 4.07 µM) for the second.

First: C=C(C)[C@@H](O)CC[C@H](C)[C@@H]1CC=C2[C@]3(C)CC[C@H]4C(C)(C)[C@@H](O)CC[C@]4(C)[C@H]3CC[C@]21C
Second: C=C(C)[C@H](O)CC[C@H](C)[C@@H]1CC=C2[C@]3(C)CC[C@H]4C(C)(C)[C@@H](O)CC[C@]4(C)[C@H]3CC[C@]21C
The GI50 of the first is 4.1-fold higher: 0.83 µg/mL (≈ 1.87 µM) for the first, 0.2 µg/mL (≈ 0.452 µM) for the second.

`C=C(C)C(O)CC[C@@H](C)[C@@H]1CC[C@]2(C)C3=C(CC[C@@]12C)[C@@]1(C)CC[C@H](O)C(C)(C)[C@@H]1CC3` (some centres not stated) and `C[C@H](C/C=C/C(C)(C)O)[C@H]1CC[C@@]2(C)C3=C(CC[C@]12C)[C@@]1(C)CC[C@H](O)C(C)(C)[C@@H]1CC3` are within 1.5-fold of each other in GI50: 1.5 µg/mL (≈ 3.39 µM) for the first, 1.8 µg/mL (≈ 4.07 µM) for the second.

test: Cytotoxicity against human SF268 cells assessed as growth inhibition after 48 hrs by sulforhodamine B assay; type: functional; settings: SF-268, 48 h

`C[C@@H](C/C=C/C(C)(C)O)[C@H]1CC[C@@]2(C)C3=C(C(=O)C[C@@]12C)[C@@]1(C)CC[C@H](O)C(C)(C)[C@@H]1CC3` and `C[C@H](C/C=C/C(C)(C)O)[C@@H]1CC[C@]2(C)C3=C(CC[C@@]12C)[C@@]1(C)CC[C@H](O)C(C)(C)[C@@H]1CC3` cannot be ordered by GI50: > 1 µg/mL for the first, 2.2 µg/mL (≈ 4.97 µM) for the second.

`C=C(C)[C@@H](O)CC[C@H](C)[C@@H]1CC=C2[C@]3(C)CC[C@H]4C(C)(C)[C@@H](O)CC[C@]4(C)[C@H]3CC[C@]21C` and `C=C(C)[C@H](O)CC[C@H](C)[C@@H]1CC=C2[C@]3(C)CC[C@H]4C(C)(C)[C@@H](O)CC[C@]4(C)[C@H]3CC[C@]21C` are within 1.5-fold of each other in GI50: 0.33 µg/mL (≈ 0.745 µM) for the first, 0.36 µg/mL (≈ 0.813 µM) for the second.

`C=C(C)C(O)CC[C@@H](C)[C@@H]1CC[C@]2(C)C3=C(CC[C@@]12C)[C@@]1(C)CC[C@H](O)C(C)(C)[C@@H]1CC3` (some centres not stated) and `C[C@H](C/C=C/C(C)(C)O)[C@H]1CC[C@@]2(C)C3=C(CC[C@]12C)[C@@]1(C)CC[C@H](O)C(C)(C)[C@@H]1CC3` are within 1.5-fold of each other in GI50: 1.4 µg/mL (≈ 3.16 µM) for the first, 1.9 µg/mL (≈ 4.29 µM) for the second.

test: Cytotoxicity against human NCI-H460 cells assessed as growth inhibition after 48 hrs by sulforhodamine B assay; type: functional; settings: NCI-H460, 48 h

`C[C@@H](C/C=C/C(C)(C)O)[C@H]1CC[C@@]2(C)C3=C(C(=O)C[C@@]12C)[C@@]1(C)CC[C@H](O)C(C)(C)[C@@H]1CC3` and `C[C@H](C/C=C/C(C)(C)O)[C@@H]1CC[C@]2(C)C3=C(CC[C@@]12C)[C@@]1(C)CC[C@H](O)C(C)(C)[C@@H]1CC3` cannot be ordered by GI50: > 1 µg/mL for the first, 1.9 µg/mL (≈ 4.29 µM) for the second.

First: C=C(C)[C@@H](O)CC[C@H](C)[C@@H]1CC=C2[C@]3(C)CC[C@H]4C(C)(C)[C@@H](O)CC[C@]4(C)[C@H]3CC[C@]21C
Second: C=C(C)[C@H](O)CC[C@H](C)[C@@H]1CC=C2[C@]3(C)CC[C@H]4C(C)(C)[C@@H](O)CC[C@]4(C)[C@H]3CC[C@]21C
The GI50 of the first is 4.8-fold higher: 0.91 µg/mL (≈ 2.06 µM) for the first, 0.19 µg/mL (≈ 0.429 µM) for the second.

`C=C(C)C(O)CC[C@@H](C)[C@@H]1CC[C@]2(C)C3=C(CC[C@@]12C)[C@@]1(C)CC[C@H](O)C(C)(C)[C@@H]1CC3` (some centres not stated) and `C[C@H](C/C=C/C(C)(C)O)[C@H]1CC[C@@]2(C)C3=C(CC[C@]12C)[C@@]1(C)CC[C@H](O)C(C)(C)[C@@H]1CC3` are within 1.5-fold of each other in GI50: 1.7 µg/mL (≈ 3.84 µM) for the first, 1.9 µg/mL (≈ 4.29 µM) for the second.

— ChEMBL document CHEMBL3856200, “Isolation and Structure of Cancer Cell Growth Inhibitory Tetracyclic Triterpenoids from the Zimbabwean Monadenium lugardae” (2016)
